Like-named read-outs stand apart in the source and are kept apart here.
Test system: participants with idiopathic pulmonary fibrosis (IPF)
[1] = 320 mg (n = 22), treatment up to 40 weeks
[2] = All 40-160 mg (n = 67), 12 weeks
[3] = All 40-320 mg (n = 88), 12 weeks
[4] = pooled 40-160 mg, With Background SoC (n = 55), 12 weeks
[5] = pooled 40-160 mg, With Background SoC nintedanib or pirfenidone (n = 55), 12 weeks
[6] = pooled 40-160 mg, Without Background SoC (n = 12), 12 weeks
[7] = single participant, 320 mg, after week 12, not drug related, resolved
[8] = single participant, 320 mg, after week 12, not drug related, resolved with sequalae

Excerpt: The groups were stratified for the use of nintedanib or pirfenidone. The groups were screened 28 days before the Day 1 of the study. At Day 1, baseline values were collected. During week 12, the subjects received the last dose, and the study was ended at week 14. Primary and secondary endpoints of the study included safety, tolerability, and PK. Exploratory endpoints included change in FVC over 12 weeks; High Resolution CT-based Quantitative Lung Fibrosis (QLF) imaging; patient-reported outcome (PRO): VAS-cough severity; and effect on selected biomarkers.
The groups were stratified for the use of nintedanib or pirfenidone. The screening was done 28 days before Day 1 and the baseline was measured on Day 1. The last dose was on Week 12, and the end of study was on Week 14. The primary and secondary endpoints include safety, tolerability, and PK. Exploratory Endpoints include change in Forced Vital Capacity (FVC) over 12 weeks, High Resolution CT-based Quantitative Lung Fibrosis (QLF) imaging, and effect on selected biomarkers.
The groups were stratified for the use of nintedanib or pirfenidone. The groups were screened 28 days before the Day 1 of the study. At Day 1, baseline values were collected. The study was continued up to Week 48. The treatment duration per protocol is at least 24 weeks and at most 48 weeks. For the study, the primary and secondary endpoints evaluated in the trial were safety, tolerability, and pharmacokinetics. The exploratory endpoints evaluated included the change in FVC over 12 and 24 weeks; high Resolution CT-based Quantitative Lung Fibrosis (QLF) imaging; patient-reported cough severity; and effect on selected biomarkers.

COCCN(CCCCc1ccc2c(n1)NCCC2)CC[C@H](Nc1ncnc2ccccc12)C(=O)O [Compound 5, (S)-4-((2-methoxyethyl) (4-(5,6,7,8-tetrahydro-1,8-naphthyridin-2-yl)butyl)amino)-2-(quinazolin-4-ylamino) butanoic acid]
TEAE Dyspnoea, participants reporting [1]: 5 n | TEAE Idiopathic Pulmonary Fibrosis related to study drug [1]: 0 n | TEAE Idiopathic Pulmonary Fibrosis, % of participants [1]: (18.2) % | TEAE Idiopathic Pulmonary Fibrosis, participants reporting [1]: 4 n | TEAE Leading to Death [1]: 1 n | TEAE Leading to Death, % of participants [1]: (4.5) ^3% | TEAE Leading to Early Termination from Study [1]: 3 n | TEAE Leading to Early Termination from Study, % of participants [1]: (13.6) ^2,3,4% | TEAE Leading to Interruption of Study Drug [1]: 4 n | TEAE Leading to Interruption of Study Drug, % of participants [1]: (18.2) ^2% | TEAE Leading to Withdrawal of Study Drug [1]: 3 n | TEAE Leading to Withdrawal of Study Drug, % of participants [1]: (13.6) ^2,3,4% | TEAE Upper respiratory tract infection related to study drug [1]: 0 n | TEAE Upper respiratory tract infection, % of participants [1]: (9.1) % | TEAE Upper respiratory tract infection, participants reporting [1]: 2 n | TEAE of CTCAE Grade 3 or Higher [1]: 5 n | TEAE of CTCAE Grade 3 or Higher related to study drug, % of participants [1]: (4.5) ^1% | TEAE of CTCAE Grade 3 or Higher, % of participants [1]: (22.7) % | TEAE related to study drug [1]: 5 n | TEAE related to study drug, % of participants [1]: (22.7) % | TEAE, % of participants [1]: (90.9) % | TEAE, participants reporting [1]: 20 n | TEAE of CTCAE Grade 3 or Higher related to study drug (320 mg (n = 22), treatment up to 40 weeks, blood pressure increased): 1 n | Safety and tolerability (320 mg, long-term treatment up to 40 weeks): well tolerated | Any AEs, % of participants [2]: (68.7) % | Any AEs, participants reporting [2]: 46 n | Serious TEAE [2]: 3 n | Serious TEAE related to study drug [2]: 0 n | Serious TEAE, % of participants [2]: (4.5) % | TEAE Diarrhea (any causality), % of participants [2]: (17.9) % | TEAE Diarrhea (any causality), participants reporting [2]: 12 n | TEAE Diarrhea related to study drug, % of participants [2]: (11.9) % | TEAE Diarrhea related to study drug, participants reporting [2]: 8 n | TEAE Leading to Death [2]: 0 n | TEAE Leading to Early Termination from Study [2]: 0 n | TEAE Leading to Interruption of Study Drug [2]: 1 n | TEAE Leading to Interruption of Study Drug, % of participants [2]: (1.5) % | TEAE Leading to Withdrawal of Study Drug [2]: 0 n | TEAE of CTCAE Grade 3 or Higher [2]: 4 n | TEAE of CTCAE Grade 3 or Higher related to study drug [2]: 1 n | TEAE of CTCAE Grade 3 or Higher related to study drug, % of participants [2]: (1.5) % | TEAE of CTCAE Grade 3 or Higher, % of participants [2]: (6.0) % | TEAE related to study drug [2]: 15 n | TEAE related to study drug, % of participants [2]: (22.4) % | TEAE, % of participants [2]: (67.2) % | TEAE, participants reporting [2]: 45 n | Any AEs, % of participants [3]: 72.7% | Any AEs, participants reporting [3]: 64 n | Serious TEAE [3]: 4 n | Serious TEAE related to study drug [3]: 0 n | Serious TEAE, % of participants [3]: 4.5% | TEAE Diarrhea (any causality), % of participants [3]: 17.0% | TEAE Diarrhea (any causality), participants reporting [3]: 15 n | TEAE Diarrhea related to study drug, % of participants [3]: 11.4% | TEAE Diarrhea related to study drug, participants reporting [3]: 10 n | TEAE Leading to Death [3]: 1 n | TEAE Leading to Death, % of participants [3]: 1.1% | TEAE Leading to Early Termination from Study [3]: 3 n | TEAE Leading to Early Termination from Study, % of participants [3]: 3.4% | TEAE Leading to Interruption of Study Drug [3]: 2 n | TEAE Leading to Interruption of Study Drug, % of participants [3]: 2.3% | TEAE Leading to Withdrawal of Study Drug [3]: 3 n | TEAE Leading to Withdrawal of Study Drug, % of participants [3]: 3.4% | TEAE of CTCAE Grade 3 or Higher [3]: 6 n | TEAE of CTCAE Grade 3 or Higher related to study drug [3]: 1 n | TEAE of CTCAE Grade 3 or Higher related to study drug, % of participants [3]: 1.1% | TEAE of CTCAE Grade 3 or Higher, % of participants [3]: 6.8% | TEAE related to study drug [3]: 19 n | TEAE related to study drug, % of participants [3]: 21.6% | TEAE, % of participants [3]: 70.5% | TEAE, participants reporting [3]: 62 n | SAE Acute respiratory failure: Standard Toxicity Grade (one participant, 40 mg, not treatment related, dose not changed, recovered/resolved): Grade 3 | SAE Idiopathic pulmonary fibrosis (acute exacerbation): Standard Toxicity Grade (one participant, 160 mg, not treatment related, about 2 weeks after 12-week treatment, not recovered/not resolved): Grade 3 | SAE Atrial flutter: Standard Toxicity Grade (one participant, 160 mg, not treatment related, underlying disease, recovered/resolved): Grade 3 | SAE Acute respiratory failure: Standard Toxicity Grade (one participant, 320 mg, GAP Stage III, after elective atrioventricular node ablation, not treatment related, drug withdrawn, fatal): Grade 5 | AE leading to withdrawal, Diarrhea: Standard Toxicity Grade (one participant, 320 mg, receiving nintedanib, recovered/resolved): Grade 1 | Any AEs, % of participants [4]: (69.1) % | Serious TEAE, % of participants [4]: (5.5) % | TEAE of CTCAE Grade 3 or Higher related to study drug, % of participants [4]: (1.8) % | TEAE of CTCAE Grade 3 or Higher, % of participants [4]: (7.3) % | TEAE related to study drug, % of participants [4]: (23.6) % | TEAE, % of participants [4]: (67.3) % | Any AEs, participants reporting [5]: 38 n | Serious TEAE [5]: 3 n | Serious TEAE related to study drug [5]: 0 n | TEAE Leading to Death [5]: 0 n | TEAE Leading to Early Termination from Study [5]: 0 n | TEAE Leading to Interruption of Study Drug [5]: 0 n | TEAE Leading to Withdrawal of Study Drug [5]: 0 n | TEAE of CTCAE Grade 3 or Higher [5]: 4 n | TEAE of CTCAE Grade 3 or Higher related to study drug [5]: 1 n | TEAE related to study drug [5]: 13 n | TEAE, participants reporting [5]: 37 n | Any AEs, % of participants [6]: (66.7) % | Any AEs, participants reporting [6]: 8 n | Serious TEAE [6]: 0 n | Serious TEAE related to study drug [6]: 0 n | TEAE Leading to Death [6]: 0 n | TEAE Leading to Early Termination from Study [6]: 0 n | TEAE Leading to Interruption of Study Drug [6]: 1 n | TEAE Leading to Interruption of Study Drug, % of participants [6]: (8.3) % | TEAE Leading to Withdrawal of Study Drug [6]: 0 n | TEAE of CTCAE Grade 3 or Higher [6]: 0 n | TEAE of CTCAE Grade 3 or Higher related to study drug [6]: 0 n | TEAE related to study drug [6]: 2 n | TEAE related to study drug, % of participants [6]: (16.7) % | TEAE, % of participants [6]: (66.7) % | TEAE, participants reporting [6]: 8 n | SAE Pneumonia: Standard Toxicity Grade (same participant, 40 mg, not treatment related, removed carpet from home without a mask, recovered/resolved): Grade 2 | SAE Iron Deficiency anemia: Standard Toxicity Grade (single participant, 320 mg, Week 29, not drug related, resolved with sequalae): Grade 3 | SAE Ileus: Standard Toxicity Grade (single participant, 320 mg, after week 12 (Week 21 hospitalization), not drug related, resolved): Grade 3 | SAE Acute Kidney Injury: Standard Toxicity Grade [7]: Grade 2 | SAE Gastritis: Standard Toxicity Grade [7]: Grade 2 | SAE Hyperlactatemia: Standard Toxicity Grade [7]: Grade 2 | SAE Acute Left Heart Failure: Standard Toxicity Grade [8]: Grade 3 | SAE Gastric Ulcer: Standard Toxicity Grade [8]: Grade 3 | SAE Haemorrhagic arteriovenous malformation: Standard Toxicity Grade [8]: Grade 3
